From patent publication US20250302816A1, “DISRUPTION OF EPITHELIAL BARRIERS FOR MOLECULAR DELIVERY ENHANCEMENT OR EXTRACTION OF EXTRACELLULAR FLUIDS” (The University of Nottingham, priority 2022, published 2025)

Test system: Calu-3
Assay: Further in vitro Transwell studies: enhancing translocation of 4 kDa FITC-dextran
Format: cell-based, human
Experimental: Exemplary molecules (a)-(1) investigated in coarse dose-response by FD4 delivery in Transwell culture (Calu-3). Each molecule was screened at 5 nM, 1 μM, 200 μM levels.
Each compound was screened at 200 μM level.
Each molecule was screened at 5 nM, 1 μM, 200 μM levels.

## CCCCCCCCCC(=O)CC(=O)N[C@H]1CCOC1=O [Agent 3OC12-HSL, N-(3-oxododecanoyl) homoserine lactone]
  Effective in enhancing translocation: Yes
